Test results from patent US20190241569A1, “3-(ARYL OR HETEROARYL) METHYLENEINDOLIN-2-ONE DERIVATIVES AS INHIBITORS OF CANCER STEM CELL PATHWAY KINASES FOR THE TREATMENT OF CANCER” (Boston Biomedical, Inc., priority 2013, published 2019).
Where a name gives a salt, the structure may show the parent alone.

Experiments:
[1] = system: FaDu CSC; experiment: Cancer stem cells, Cell Titer-Glo 72 hours (Test Example 3); format: cell-based; conditions: Homo sapiens, FaDu, 72 h
[2] = target: T1, human RIOK2 protein (Homo sapiens, UniProt Q9BVS4); experiment: RIOK2 autophosphorylation ELISA (Test Example 4); format: biochemical; conditions: for inhibition at 1 µM: read-out: Inhibitory activity at 1 μM (%); for inhibition at 10 µM: read-out: Inhibitory activity at 10 μM (%)
T1 construct: glutathione S-transferase is fused to N-terminal of a full-length human RIOK2 protein; GST (glutathione S-transferase) (N); purchased CarnaBio, Inc; host or cells: baculovirus-Sf21 cell expression system
T1 sequence (Q9BVS4 whole entry, the tested form may be a part): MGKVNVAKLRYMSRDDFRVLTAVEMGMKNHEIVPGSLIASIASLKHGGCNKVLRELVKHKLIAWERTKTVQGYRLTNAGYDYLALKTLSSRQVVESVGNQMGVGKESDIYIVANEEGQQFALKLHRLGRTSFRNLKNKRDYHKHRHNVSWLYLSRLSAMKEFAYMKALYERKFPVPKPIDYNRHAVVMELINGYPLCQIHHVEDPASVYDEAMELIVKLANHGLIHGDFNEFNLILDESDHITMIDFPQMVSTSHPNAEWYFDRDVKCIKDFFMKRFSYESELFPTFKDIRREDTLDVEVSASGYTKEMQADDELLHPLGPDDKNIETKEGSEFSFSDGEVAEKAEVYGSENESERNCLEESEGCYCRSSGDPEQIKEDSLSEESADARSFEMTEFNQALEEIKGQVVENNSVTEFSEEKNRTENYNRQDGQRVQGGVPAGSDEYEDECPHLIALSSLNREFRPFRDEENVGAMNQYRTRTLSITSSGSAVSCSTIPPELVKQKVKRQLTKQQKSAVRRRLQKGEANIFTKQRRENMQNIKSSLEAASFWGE
Experimental: A protein in which glutathione S-transferase is fused to N-terminal of a full-length human RIOK2 protein was used as a recombinant human RIOK2 protein. The protein was prepared using a baculovirus-Sf21 cell expression system from CarnaBio, Inc. A kinase reaction solution was prepared by mixing 25 μg/mL of the recombinant human RIOK2 protein and 100 μM of ATP in 20 μl of kinase reaction buffer (50 mM Tris-HCl, 10 mM MgCl2, 10 mM MnCl2, 1 mM DTT, 0.01% Brij, 1× PhosSTOP (manufactured by Roche Applied Science)), and was incubated at a temperature of 30° C. for 1 hour. After adding 30 μl of 40 mM EDTA solution to this kinase reaction solution, the kinase reaction solution was transferred to a MaxiSorp 96 well plate (manufactured by Nunc). Thereafter, phosphorylated human RIOK2 protein was allowed to adsorb onto the wells by leaving the plate in a refrigerator overnight.
The following day, the supernatant was removed, and the wells were washed three times with ELISA buffer (20 mM Tris-HCl, 150 mM NaCl, 0.2% Tween-20, 0.1% BSA). Thereafter, 100 μl of Blocking-One P (product name; manufactured by Nacalai Tesque, Inc.) was applied to the wells, and a blocking treatment was performed for 1 hour at room temperature. […] After further washing the wells, a secondary antibody, anti-rabbit IgG conjugated with horseradish peroxidase (manufactured by Jackson ImmunoResearch; 1/4000 ELISA buffer-diluted solution), was applied to the wells, and incubation was performed for 30 minutes at room temperature. After washing the wells once again, 50 μl of tetramethyl benzidine (TMB) aqueous solution (manufactured by Nacalai Tesque, Inc.) was applied to the wells, and a coloring reaction was performed for 30 minutes at room temperature. Thereafter, the coloring reaction was stopped by adding 50 μl of 2M H2SO4 to the wells. An absorptiometric level of 450 nm was measured in each well using ARVO SX (manufactured by Wallac).

[3] = system: A549 CSC; experiment: Cancer stem cells, Cell Titer-Glo 72 hours (Test Example 3); format: cell-based; conditions: Homo sapiens
[4] = system: ACHN CSC; experiment: as above; format: cell-based; conditions: Homo sapiens, ACHN, 72 h
[5] = system: A549; experiment: Bulk cancer cells, Cell Titer-Glo 72 hours (Test Example 2); format: cell-based; conditions: Homo sapiens
Experimental: (§1) Tubes of 3× drug (60 uM in 500 uL complete media) were prepared from 5 mM stock solutions in DMSO. […] To treat cells, 50 uL of drug from the dilution plate was removed and added to the cell plates. […] Cells were harvested 72 hours after drug addition using Cell Titer-Glo (Promega) and luminescence measured on a plate reader.

[6] = system: FaDu; experiment: as above; format: cell-based; conditions: Homo sapiens
Experimental: as §1

[7] = system: ACHN; experiment: as above; format: cell-based; conditions: Homo sapiens, ACHN, 72 h
Experimental: as §1

`CCN(CC)CCNC(=O)c1c(C)[nH]c(/C=C2\C(=O)Nc3ccc(-c4ccnn4-c4ccccc4)cc32)c1C` [Example 22] showed an IC50 [1] of 3460 nM, an inhibition at 1 µM [2] of 55% and an inhibition at 10 µM [2] of 100%. The IC50 [3] was 5.54 µM, the IC50 [4] was 1170 nM and the IC50 [5] was 2.94 µM. For the same compound, the IC50 [6] was 3.01 µM and the IC50 [7] was 6.57 µM.

With `Cc1[nH]c(/C=C2\C(=O)Nc3ccc(-c4nnc(-c5ccccc5)s4)cc32)c(C)c1C(=O)N1CCN(C)CC1` [Example 2] the IC50 [1] was 230 nM, the inhibition at 10 µM [2] was 19% and the IC50 [5] was 48.9 µM. For the same compound, the IC50 [6] was 14.1 µM.

In the case of `Cc1[nH]c(/C=C2\C(=O)Nc3ccc(-c4ccc(-c5ccccc5)s4)cc32)c(C)c1C(=O)N1CCN(C)CC1` [Example 3], the IC50 [1] is reported as 1160 nM, the inhibition at 10 µM [2] is reported as 65% and the IC50 [6] is reported as 25.4 µM.

In the case of `CCN(CC)CCNC(=O)c1c(C)[nH]c(/C=C2\C(=O)Nc3ccc(-c4cnn(-c5ccccc5)c4)cc32)c1C` [Example 4], the IC50 [1] is reported as 600 nM, the inhibition at 1 µM [2] is reported as 45% and the inhibition at 10 µM [2] is reported as 94%. For the same compound, the IC50 [3] was 4.83 µM, the IC50 [5] was 5.35 µM and the IC50 [6] was 6.25 µM. It also gave an IC50 [7] of 2.28 µM.

In the case of `CCN(CC)CCNC(=O)c1c(C)[nH]c(/C=C2\C(=O)Nc3ccc(-c4ccc(-c5ccccc5)s4)cc32)c1C` [Example 1, (Z)-N-(2-(diethylamino)ethyl)-2,4-dimethyl-5-((2-oxo-5-(5-phenylthiophen-2-yl)indolin-3-ylidene)methyl)-1H-pyrrole-3-carboxamide], the IC50 [1] is reported as 1200 nM, the inhibition at 10 µM [2] is reported as 14% and the IC50 [6] is reported as 4.74 µM. It also gave an IC50 [7] of 7.6 µM.

For `CCN(CC)CCNC(=O)c1c(C)[nH]c(/C=C2\C(=O)Nc3ccc(-c4ncc(-c5ccccc5)o4)cc32)c1C` [Example 19], the IC50 [1] was 27600 nM, the inhibition at 1 µM [2] was 32% and the inhibition at 10 µM [2] was 56%. The IC50 [3] was 0.35 µM and the IC50 [6] was 7.35 µM.

`CCN(CC)CCCNC(=O)c1c(C)[nH]c(/C=C2\C(=O)Nc3ccc(-c4cnn(-c5ccccc5)c4)cc32)c1C` [Example 90] showed an inhibition at 1 µM [2] of 20% and an inhibition at 10 µM [2] of 96%.

`Cc1[nH]c(/C=C2\C(=O)Nc3ccc(-c4cnn(-c5ccccc5)c4)cc32)c(C)c1C(=O)N[C@H]1CCCNC1` [Example 88, (S,Z)-2,4-dimethyl-5-((2-oxo-5-(1-phenyl-1H-pyrazol-4-yl)indolin-3-ylidene)methyl)-N-(piperidin-3-yl)-1H-pyrrole-3-carboxamide hydrochloride] showed an inhibition at 1 µM [2] of 1.4% and an inhibition at 10 µM [2] of 122%.

`CCN(CC)CCNC(=O)c1c(C)[nH]c(/C=C2\C(=O)Nc3ccc(-c4cnn(-c5ncccn5)c4)cc32)c1C` [Example 70] gave an inhibition at 1 µM [2] of 42% and an inhibition at 10 µM [2] of 112%.

Work on `CCN(CC)CCNC(=O)c1c(C)[nH]c(/C=C2\C(=O)Nc3ccc(-c4cnn(C5CCOCC5)c4)cc32)c1C` [Example 47] yielded an IC50 [1] of 2570 nM, an inhibition at 1 µM [2] of 32% and an inhibition at 10 µM [2] of 68%. The IC50 [5] was 16 µM, the IC50 [6] was 4.22 µM and the IC50 [7] was 10.4 µM.

Work on `CCN(CC)CCNC(=O)c1c(C)[nH]c(/C=C2\C(=O)Nc3ccc(-c4cnn(-c5cscn5)c4)cc32)c1C` [Example 72] yielded an inhibition at 1 µM [2] of 41% and an inhibition at 10 µM [2] of 99%.

`Cc1[nH]c(/C=C2\C(=O)Nc3ccc(-c4cnn(-c5ccccc5)c4)cc32)c(C)c1C(=O)NCC1(N)CCCC1` [Example 93] showed an inhibition at 1 µM [2] of 7% and an inhibition at 10 µM [2] of 65%.

`CCN(CC)CCNC(=O)c1c(C)[nH]c(/C=C2\C(=O)Nc3ccc(-c4ccnn4-c4ccccn4)cc32)c1C` [Example 63] gave an inhibition at 1 µM [2] of 14% and an inhibition at 10 µM [2] of 93%.

`CCN(CC)CCNC(=O)c1c(C)[nH]c(/C=C2\C(=O)Nc3ccc(-c4cnn(-c5nccs5)c4)cc32)c1C` [Example 73] showed an inhibition at 1 µM [2] of 18% and an inhibition at 10 µM [2] of 111%.

Compound `CCN(CC)CCNC(=O)c1c(C)[nH]c(/C=C2\C(=O)Nc3ccc(-c4cnn(-c5ccncn5)c4)cc32)c1C` [Example 69] has an inhibition at 1 µM [2] of 40% and an inhibition at 10 µM [2] of 109%.
